Patent publication US10766940B2, “Brain penetrant amylin receptor based peptides for Alzheimer's disease” (The Governors of the University of Alberta, priority 2016, dated 2020)
Residues, ends and D or L forms follow the SMILES beside them. No end group written: not given here.

Key:
AMY3 receptor = target: T1, AMY3 receptor (Homo sapiens, UniProt O60896+P30988); assay: Inhibition of hAmylin-evoked cAMP in AMY3-expressing HEK293 cells; type: cell-based; details: AMY3-HEK cells
T1 construct: expressed in transfected cells; AMY3-293 / AMY3-HEK)
T1 sequence (P30988 25-474): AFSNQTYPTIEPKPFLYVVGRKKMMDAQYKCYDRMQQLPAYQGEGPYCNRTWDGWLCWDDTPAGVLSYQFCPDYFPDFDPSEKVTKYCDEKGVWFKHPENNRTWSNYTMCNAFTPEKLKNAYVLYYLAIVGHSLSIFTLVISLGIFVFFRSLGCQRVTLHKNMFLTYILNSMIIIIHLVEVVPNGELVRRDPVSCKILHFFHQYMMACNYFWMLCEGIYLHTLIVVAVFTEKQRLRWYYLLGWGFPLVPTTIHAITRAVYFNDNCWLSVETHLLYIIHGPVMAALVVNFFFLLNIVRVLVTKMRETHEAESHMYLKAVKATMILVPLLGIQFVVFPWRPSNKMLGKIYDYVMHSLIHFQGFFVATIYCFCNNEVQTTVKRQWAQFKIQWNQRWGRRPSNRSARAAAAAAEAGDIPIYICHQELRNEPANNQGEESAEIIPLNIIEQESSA
T1 sequence (O60896 24-148 partner): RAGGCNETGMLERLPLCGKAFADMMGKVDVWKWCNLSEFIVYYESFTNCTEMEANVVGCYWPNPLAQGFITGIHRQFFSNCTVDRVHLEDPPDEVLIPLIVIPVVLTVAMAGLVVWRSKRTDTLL
Protocol: a) To investigate peptides amylin receptor affinity, GFP-positive HEK293 cells that stably expressed AMY3 receptor (AMY3-293) as previously reported (Fu et al., 2012) were used. For control, GFP-positive HEK293 wild type cells were used. HEK293 cells were cultured in DMEM (Invitrogen) with 10% FBS (Invitrogen) and grown at 37° C., 5% C02. For cAMP measurements, AMY3-293 cells were plated on 24-well plates overnight. Cells were stimulated for 30 minutes with hAmylin over a concentration range (1 pM-10 μM). Cellular cAMP levels were measured using a parameter cyclic AMP assay kit (R&D Systems) according to the manufacturer's instructions. For in-cell Western blot cAMP quantification, mouse monoclonal anti-cAMP (R&D Systems) was used as a primary antibody, and IRDye 800 goat anti mouse antibody (LI-COR) was used as a secondary antibody. Plates were imaged using an Odyssey Infrared Imaging System (LI-COR), and the integrated intensity was normalized to the total cell number on the same well. Data was plotted, and non-linear regression was fitted with four parameters using Prism software (GraphPad Software, La Jolla, Calif.).
e) For cAMP measurements, AMY3-293 cells were plated on 24-well plates overnight. […] Cellular cAMP levels were measured using a parameter cyclic AMP assay kit (R&D Systems) according to the manufacturer's instructions. […]

[1] = tested on: human neuroblastoma, SK-N-SH cells; assay: Aβ1-42 cytotoxicity (MTT) in SK-N-SH cells; type: cell-based; details: Aβ1-42 20 μM
Protocol: f) To investigate the antagonistic activity of peptide fragments against Aβ cytotoxicity in vitro, (human fetal neurons) HFNs, human neuroblastoma, SK-N-SH cells and N2a mouse neuroblastoma cells were used. Cells were seeded to 5000 cells/well in a 96-well plate in MEM-10% FBS and DMEM/OptiMEM-5% FBS for overnight. Cells in culture media were preincubated for 8 h with or without AC253 or fragments R5, R14, R11, and followed by treatment with Aβ1-42 for 24 h. At the end of treatment, 20 μl of 5 mg/ml methylthiazolyldiphenyl-tetrazolium bromide (MTT) was added to each well, and incubated at 37° C. for 3 h. Medium was removed, 100 μl of MTT solvent (isopropanol with 4 mM HCl) added to each well, and the plates were incubated for 30 min at room temperature on a rotating shaker. Plates were analyzed on a microplate reader at a 562-nm wavelength.

[2] = Ex vivo brain imaging of peptide fragments after ip injection, wild-type mice; type: in vivo, mouse
Protocol: For ex vivo imaging experiments and peptide brain uptake, age matched 6-month-old wild-type littermate (C57BL/6 background) mice were used. […] After 2 hours the mice were then sacrificed to collect their brains, and imaged using the Kodak imager as described above, but with an exposure time of 3 min per image for NIRF image.
For ex vivo histological studies, brains were excised, embedded in OCT, then sliced into 20-μm slices, co-stained with DAPI in mounting medium.
Mice were injected with a single dose and then sacrificed, and the brains were extracted after 2 hours from injection. Fluorescence in brains was quantified as previously described.

| Compound | block of hAmylin evoked cAMP increase (AMY3 receptor) | block of Aβ1-42 triggered cell death, SK-N-SH (MTT) [1] | brain permeability, imaging of the intact brain ([2]; 0.1 mmol ip, 2 hr post-injection, tested alongside Davlintide) | brain permeability compared to AC253 ([2]; 2 hr post-ip injection, wild-type mice) |
| --- | --- | --- | --- | --- |
| CC(C)C[C@H](NC(=O)[C@H](CCCNC(=N)N)NC(=O)CNC(=O)[C@@H](N)CC(C)C)C(=O)N[C@@H](CO)C(=O)N[C@@H](CCC(N)=O)C(=O)N[C@@H](CCC(=O)O)C(=O)N[C@@H](CC(C)C)C(=O)N[C@@H](Cc1c[nH]cn1)C(=O)N[C@@H](CCCNC(=N)N)C(=O)N[C@@H](CC(C)C)C(=O)N[C@@H](CCC(N)=O)C(=O)N[C@H](C(=O)N[C@@H](Cc1ccc(O)cc1)C(=O)N1CCC[C@H]1C(=O)N[C@@H](CCCNC(=N)N)C(=O)N[C@H](C(=O)N[C@@H](CC(N)=O)C(=O)N[C@H](C(=O)NCC(=O)N[C@@H](CO)C(=O)N[C@@H](CC(N)=O)C(=O)N[C@H](C(=O)N[C@@H](Cc1ccc(O)cc1)C(N)=O)[C@@H](C)O)[C@@H](C)O)[C@@H](C)O)[C@@H](C)O [AC253] | blocked the hAmylin evoked cAMP increase in a dose-dependent manner |  |  |  |
| CC(C)C[C@H](NC(=O)[C@H](CCC(=O)O)NC(=O)[C@H](CCC(N)=O)NC(=O)[C@@H](N)CO)C(=O)N[C@@H](Cc1c[nH]cn1)C(=O)N[C@@H](CCCNC(=N)N)C(=O)N[C@@H](CC(C)C)C(=O)N[C@@H](CCC(N)=O)C(=O)N[C@H](C(=O)N[C@@H](Cc1ccc(O)cc1)C(=O)N1CCC[C@H]1C(=O)N[C@@H](CCCNC(=N)N)C(N)=O)[C@@H](C)O [R5] (H-SQELHRLQTYPR-NH2; N-terminus assumed) |  | block the effect of Aβ1-42 | marked brain permeability | marked increase in brain permeability |
| LGRLSQELHRLQTY (LGRLSQELHRLQTY-NH2) [R14] |  | block the effect of Aβ1-42 |  |  |
